According to patent US12193443B2, “Use of benzoxepin derivatives as a herbicide” (ECOLE POLYTECHNIQUE, priority 2019, dated 2025):

Test system: Arabidopsis thaliana seedlings
Assay: Test of the herbicidal activity on Arabidopsis thaliana seedlings grown hydroponically at the cotyledon stage
Type: in vivo
Set-up: key: A for Active in the case where the plant is killed, that is to say when the two cotyledons have lost all of their green coloration; “N” for Not active, in the case where no biological activity is observed
Conditions: for Activity after 24 h: 24 h after application; for Activity after 96 h: 96 h after application
Description: The compounds were tested on Arabidopsis thaliana seedlings grown hydroponically at the cotyledon stage. Sterile seeds are germinated in the light in a culture plate, in the presence of 200 μL of nutrient medium. After five days of culture (time 0 of the trial), the nutrient medium is replaced with an equivalent volume (200 μL) of this same medium containing the compound to be tested at different concentrations. The manifestation of herbicidal activity is indicated by A for Active in the case where the plant is killed, that is to say when the two cotyledons have lost all of their green coloration, 24 h and 96 h after application of the product. The absence of herbicidal activity is indicated by “N” for Not active, in the case where no biological activity is observed.

| Compound | Activity after 24 h (10 μg/mL in nutrient medium) | Activity after 96 h (10 μg/mL in nutrient medium) | Activity after 24 h (50 μg/mL in nutrient medium) | Activity after 96 h (50 μg/mL in nutrient medium) | Activity after 24 h (100 μg/mL in nutrient medium) | Activity after 96 h (100 μg/mL in nutrient medium) |
| --- | --- | --- | --- | --- | --- | --- |
| CC1=CCOc2cc(CCc3ccccc3)c(C(=O)O)c(O)c2C1 [Compound C] | A | A | A | A | A | A |
| CC1=CCc2c(O)cc(CCc3ccccc3)cc2OC1 [Compound A] | N | N | A | A | A | A |
| COC(=O)c1c(CCc2ccccc2)cc2c(c1O)CC=C(C)CO2 [Compound D] | N | N | N | A | N | A |
| CC1=CCc2c(cc(CCc3ccccc3)c(C(=O)O)c2O)OC1 [Compound H] | A | A | A | A | A | A |
| Oc1cccc2c1CC=CCO2 [Compound E, reference compound] | N | N | N | N | N | N |
